Results: ChEMBL document CHEMBL3885861, “Open TG-GATES”

Organism: Rattus norvegicus
Assay: Open TG-GATES - Regimen: Daily Repeat
Assay type: toxicity, organism-based, Sprague-Dawley
Set-up: regimen Daily Repeat, gender Male, age 6 weeks
Settings: in vivo, po, 1000 mg/kg, route gavage, dose level High; for APTT / Bas / Eos / Fbg / Hb / Ht / Lym / MCH / MCHC / MCV / Mono / Neu / PT / Plat / RBC / Ret / WBC: tissue Blood; for KIDNEY_L / KIDNEY_R / KIDNEY_TOTAL: tissue Kidney; for LIVER: tissue Liver; for A/G / ALP / ALT / AST / BUN / CRE / Ca / Cl / DBIL / GLC / IP / K / LDH / Na / PL / RALB / TBIL / TC / TG / TP / gamma-GTP: tissue Plasma

## O=C(OC[C@H]1O[C@@H](OC(=O)c2cc(O)c(O)c(OC(=O)c3cc(O)c(O)c(O)c3)c2)[C@H](OC(=O)c2cc(O)c(O)c(OC(=O)c3cc(O)c(O)c(O)c3)c2)[C@@H](OC(=O)c2cc(O)c(O)c(OC(=O)c3cc(O)c(O)c(O)c3)c2)[C@@H]1OC(=O)c1cc(O)c(O)c(OC(=O)c2cc(O)c(O)c(O)c2)c1)c1cc(O)c(O)c(OC(=O)c2cc(O)c(O)c(O)c2)c1 [TANNIC ACID]
72 h, time 3 day
  TERMINAL_BW: 216.2 g
  APTT: 17 s
  Bas: 0%
  Eos: 1.4%
  Fbg: 234.6 mg/dL
  Hb: 13.2 g/dL
  Ht: 39.6%
  Lym: 67.8%
  MCH: 21.3 pg
  MCHC: 33.3%
  MCV: 63.8 fL
  Mono: 10.2%
  Neu: 20.6%
  PT: 11.6 s
  Plat: 110.8 x10_4/uL
  RBC: 621.4 x10_4/ul
  Ret: 7.9%
  WBC: 91.3 x10_2/uL
  KIDNEY_L: 1 g
  KIDNEY_R: 1 g
  KIDNEY_TOTAL: 1.9 g
  LIVER: 10.6 g
  A/G: 2
  ALP: 818.6 IU/L
  ALT: 42.6 IU/L
  AST: 65.6 IU/L
  BUN: 17.6 mg/dL
  CRE: 0.4 mg/dL
  Ca: 10.9 mg/dL
  Cl: 104.2 meq/L
  DBIL: 0.004 mg/dL
  GLC: 204.4 mg/dL
  IP: 7.9 mg/dL
  K: 4.6 meq/L
  LDH: 81.6 IU/L
  Na: 139.4 meq/L
  PL: 152.8 mg/dL
  RALB: 3.6 g/dL
  TBIL: 0.4 mg/dL
  TC: 85 mg/dL
  TG: 88.6 mg/dL
  TP: 5.5 g/dL
  gamma-GTP: 1.2 IU/L
[…], time 7 day
  TERMINAL_BW: 253.1 g
  APTT: 17.3 s
  Bas: 0%
  Eos: 1%
  Fbg: 227.4 mg/dL
  Hb: 13.3 g/dL
  Ht: 40%
  Lym: 72%
  MCH: 21.8 pg
  MCHC: 33.3%
  MCV: 65.5 fL
  Mono: 6%
  Neu: 21.2%
  PT: 11.3 s
  Plat: 121.1 x10_4/uL
  RBC: 610.4 x10_4/ul
  Ret: 7.4%
  WBC: 103.9 x10_2/uL
  KIDNEY_L: 1.1 g
  KIDNEY_R: 1.1 g
  KIDNEY_TOTAL: 2.2 g
  LIVER: 12.1 g
  A/G: 1.7
  ALP: 897.4 IU/L
  ALT: 34.2 IU/L
  AST: 60 IU/L
  BUN: 16.2 mg/dL
  CRE: 0.5 mg/dL
  Ca: 10.8 mg/dL
  Cl: 103.2 meq/L
  DBIL: 0.012 mg/dL
  GLC: 200.4 mg/dL
  IP: 8 mg/dL
  K: 4.6 meq/L
  LDH: 93.4 IU/L
  Na: 136.6 meq/L
  PL: 125.4 mg/dL
  RALB: 3.7 g/dL
  TBIL: 0.4 mg/dL
  TC: 62.6 mg/dL
  TG: 91 mg/dL
  TP: 5.9 g/dL
  gamma-GTP: 1 IU/L
[…], time 14 day
  TERMINAL_BW: 291.2 g
  APTT: 16.4 s
  Bas: 0%
  Eos: 1%
  Fbg: 241.2 mg/dL
  Hb: 14.5 g/dL
  Ht: 43.2%
  Lym: 74.8%
  MCH: 20.5 pg
  MCHC: 33.4%
  MCV: 61.3 fL
  Mono: 9.4%
  Neu: 14.8%
  PT: 11.5 s
  Plat: 121.1 x10_4/uL
  RBC: 705.6 x10_4/ul
  Ret: 4.7%
  WBC: 116.2 x10_2/uL
  KIDNEY_L: 1.1 g
  KIDNEY_R: 1.1 g
  KIDNEY_TOTAL: 2.3 g
  LIVER: 12.9 g
  A/G: 1.9
  ALP: 720.4 IU/L
  ALT: 35.4 IU/L
  AST: 58.6 IU/L
  BUN: 17.8 mg/dL
  CRE: 0.5 mg/dL
  Ca: 10.7 mg/dL
  Cl: 104.6 meq/L
  DBIL: 0.024 mg/dL
  GLC: 204.2 mg/dL
  IP: 8.3 mg/dL
  K: 4.6 meq/L
  LDH: 87.6 IU/L
  Na: 140.4 meq/L
  PL: 145.2 mg/dL
  RALB: 3.8 g/dL
  TBIL: 0.4 mg/dL
  TC: 70.4 mg/dL
  TG: 115.8 mg/dL
  TP: 5.8 g/dL
  gamma-GTP: 0.8 IU/L
[…], time 28 day
  TERMINAL_BW: 390.8 g
  APTT: 16 s
  Bas: 0%
  Eos: 1.6%
  Fbg: 225.2 mg/dL
  Hb: 14.4 g/dL
  Ht: 43%
  Lym: 78.2%
  MCH: 19.4 pg
  MCHC: 33.5%
  MCV: 57.9 fL
  Mono: 7.6%
  Neu: 12.6%
  PT: 11.6 s
  Plat: 118.3 x10_4/uL
  RBC: 741.4 x10_4/ul
  Ret: 3.1%
  WBC: 130.6 x10_2/uL
  KIDNEY_L: 1.4 g
  KIDNEY_R: 1.4 g
  KIDNEY_TOTAL: 2.8 g
  LIVER: 16.8 g
  A/G: 1.8
  ALP: 573 IU/L
  ALT: 31.6 IU/L
  AST: 54 IU/L
  BUN: 20.4 mg/dL
  CRE: 0.5 mg/dL
  Ca: 10.7 mg/dL
  Cl: 105.8 meq/L
  DBIL: 0.006 mg/dL
  GLC: 199.2 mg/dL
  IP: 7.8 mg/dL
  K: 4.5 meq/L
  LDH: 87.8 IU/L
  Na: 139 meq/L
  PL: 152.6 mg/dL
  RALB: 3.8 g/dL
  TBIL: 0.4 mg/dL
  TC: 73.4 mg/dL
  TG: 139.4 mg/dL
  TP: 6 g/dL
  gamma-GTP: 1 IU/L
